Measurements taken from article PMC8659243, “Design, Synthesis and Tumour-Selective Toxicity of Novel 1-[3-{3,5-Bis(benzylidene)-4-oxo-1-piperidino}-3-oxopropyl]-4-piperidone Oximes and Related Quaternary Ammonium Salts” (Molecules, 2021).
Where a name gives a salt, the structure may show the parent alone.

How the values were obtained:
[1] = tested on: CEM T-lymphoblastic leukemia cells; experiment: Cytotoxicity against CEM cells, MTT method, 24 h; type: cell-based; settings: Homo sapiens, CCRF-CEM, concentration required to inhibit cell growth by 50%
Protocol: The method used for the evaluation of various compounds against human CEM cells has been reported previously. In brief, cells were grown in RPMI-1640 medium supplemented with 10% heat-inactivated fetal bovine serum. Different concentrations of compounds were added to the media, and after 24 h incubation, cytotoxicity was measured by the MTT method.

[2] = Average over HGF, HPLF and HPC non-malignant cells; type: cell-based; settings: human, HPLF and HPC non-malignant cells (average of the three)
Protocol: (§1) A literature procedure was followed when the compounds in series 3 and 4 were evaluated against three human oral squamous cell carcinoma cell lines Ca9-22 (RCB-1976), HSC-2 (RCB1945), HSC-4 (RCB1902) (purchased from RIKEN Cell Bank, Tukuba, Japan) and three human normal oral cells, gingival fibroblast (HGF), periodontal ligament fibroblast (HPLF) and pulp cells (HPC) (established according to the guideline of the intramural ethic committee, A0808) except the duration of incubation was increased from 24 h to 48 h. In brief, various concentrations of the compounds were added to the DMEM media, which was supplemented by 10% heat-inactivated fetal bovine serum. Incubation was undertaken at 37 °C. At the completion of the experiment, cell viability was determined by the MTT method.

[3] = Cytotoxicity against non-malignant HGF cells, MTT method, 48 h; type: cell-based; settings: human, gingival fibroblasts (HGF)
Protocol: as §1

colon cancer cells = experiment: NCI in vitro screen, average of colon cancer cells; type: cell-based; settings: Homo sapiens
Description: (§2) One particular reference drug is 5-fluorouracil, which is used in treating colon cancers.

HSC-2 cells = experiment: Cytotoxicity against HSC-2 cells, MTT method, 48 h; type: cell-based, human; settings: for CC50: Homo sapiens, HSC-2, concentration required to kill 50% of the cells, 48 h, MTT; for SI HSC-2: average CC50 towards HGF, HPLF, HPC divided by CC50 against HSC-2
Protocol: as §1

[4] = tested on: Ca9-22, HSC-2 and HSC-4 cells; experiment: Average over Ca9-22, HSC-2 and HSC-4 neoplastic cells; type: cell-based, human; settings: for CC50: Homo sapiens, average of Ca9-22, HSC-2 and HSC-4, read-out: Average CC50; for Average SI: average of SI for Ca9-22, HSC-2 and HSC-4
Protocol: In order to assess whether the compounds in series 3 and 4 are more toxic to neoplasms than non-malignant cells, selective index (SI) figures were calculated. In the in vivo situation, a tumour is surrounded by a number of non-malignant cells.
In order to identify the most promising lead compounds in terms of both cytotoxic potencies and favourable SI values, potency–selectivity expression (PSE) values were computed. […] Outstanding results may be noted for four compounds that have PSE values in excess of 100,000 namely 3d, 4c–e. […] However, the relative SI/PSE distribution patterns between series 3 and 4 (from a to h) are nearly superimposable with each other (Figure 3). […] It has been reported that 3,5-bis(3-iodo-5-methoxy-4-propoxybenzylidene)-N-acetylpiperidin-4-one inhibited tubulin and destabilization of microtubules, while 3,5-bis(3,4,5-trimethoxybenzylidene)-N-benzoylpiperidin-4-one destabilizes the microtubules. Thus, it remained to investigate whether compound 4d acts as an inhibitor of the microtubule.
as §1

HCT-116 cells = experiment: NCI in vitro screen, colon cancer HCT-116; type: cell-based; settings: Homo sapiens
Description: as §2

HT29 cells = experiment: NCI in vitro screen, colon cancer HT29; type: cell-based; settings: Homo sapiens, HT-29
Description: as §2

KM12 cells = experiment: NCI in vitro screen, colon cancer KM12; type: cell-based; settings: Homo sapiens
Description: as §2

Colo205 cells = experiment: NCI in vitro screen, colon cancer Colo205; type: cell-based; settings: Homo sapiens, COLO 205
Description: as §2

All Cell Lines = experiment: NCI in vitro screen, all cell lines; type: cell-based; settings: Homo sapiens
Description: as §2

RPMI-8226 cells = experiment: NCI in vitro screen, leukemia RPMI-8226; type: cell-based; settings: Homo sapiens
Description: (§3) In view of the encouraging result with CEM leukemic cells, consideration was given to an assessment in the NCI in vitro screening program. The oximes, but not the quaternary ammonium salts, were accepted for bioevaluation. Examination of the mean graphs confirms the sensitivity of leukemic cells to these compounds.

Ca9-22 cells = experiment: Cytotoxicity against Ca9-22 cells, MTT method, 48 h; type: cell-based, human; settings: for CC50: Homo sapiens, Ca9-22, concentration required to kill 50% of the cells, 48 h, MTT, read-out: CC50 Ca9-22; for SI Ca9-22: average CC50 towards HGF, HPLF, HPC divided by CC50 against Ca9-22
Protocol: as §1

[5] = Cytotoxicity against non-malignant HPC cells, MTT method, 48 h; type: cell-based; settings: human, pulp cells (HPC)
Protocol: as §1

leukemia cells = experiment: NCI in vitro screen, average of leukemia cells; type: cell-based; settings: Homo sapiens
Description: as §3

SW-620 cells = experiment: NCI in vitro screen, colon cancer SW-620; type: cell-based; settings: Homo sapiens
Description: as §2

Molt-4 cells = experiment: NCI in vitro screen, leukemia Molt-4; type: cell-based; settings: Homo sapiens
Description: as §3

HCT-15 cells = experiment: NCI in vitro screen, colon cancer HCT-15; type: cell-based; settings: Homo sapiens
Description: as §2

HSC-4 cells = experiment: Cytotoxicity against HSC-4 cells, MTT method, 48 h; type: cell-based, human; settings: for CC50: Homo sapiens, HSC-4, concentration required to kill 50% of the cells, 48 h, MTT, read-out: CC50 HSC-4; for SI HSC-4: average CC50 towards HGF, HPLF, HPC divided by CC50 against HSC-4
Protocol: as §1

HCC-2998 cells = experiment: NCI in vitro screen, colon cancer HCC-2998; type: cell-based; settings: Homo sapiens
Description: as §2

SR cells = experiment: NCI in vitro screen, leukemia SR; type: cell-based; settings: Homo sapiens
Description: as §3

[6] = Cytotoxicity against non-malignant HPLF cells, MTT method, 48 h; type: cell-based; settings: human, periodontal ligament fibroblasts (HPLF)
Protocol: as §1

K-562 cells = experiment: NCI in vitro screen, leukemia K-562; type: cell-based; settings: Homo sapiens, K562
Description: as §3

HL-60 (TB) cells = experiment: NCI in vitro screen, leukemia HL-60 (TB); type: cell-based; settings: Homo sapiens
Description: as §3

Row | SMILES | IC50 [1] [µM] | CC50 at 48 h [2] [µM] | CC50 at 48 h [3] [µM] | IC50 (colon cancer cells) [µM] | CC50 (HSC-2 cells) [µM] | SI HSC-2 (HSC-2 cells) | CC50 [4] [µM] | Average SI [4] | IC50 (HCT-116 cells) [µM] | IC50 (HT29 cells) [µM] | IC50 (KM12 cells) [µM] | IC50 (Colo205 cells) [µM] | IC50 (All Cell Lines) [µM] | IC50 (RPMI-8226 cells) [µM] | CC50 (Ca9-22 cells) [µM] | SI Ca9-22 (Ca9-22 cells) | CC50 at 48 h [5] [µM] | IC50 (leukemia cells) [µM] | IC50 (SW-620 cells) [µM] | IC50 (Molt-4 cells) [µM] | other results
1 | COc1ccc(/C=C2\CN(C(=O)CCN3CCC(=NO)CC3)C/C(=C\c3ccc(OC)cc3)C2=O)cc1 [Compound 3g, (3~{E},5~{E})-3,5-bis[(4-methoxyphenyl)methylene]-1-[3-(4-hydroximino-1-piperidyl)propanoyl]piperidin-4-one hydrochloride] | 4.35 ± 0.2 | 10.8 | 6.63 ± 0.06 | 1.84 | 1.56 ± 0.55 | 6.92 | 0.93 | 13.9 | 1.74 | 2.04 | 1.74 | 2.04 | 1.28 | 0.65 | 0.59 ± 0.06 | 18.3 | 13.6 ± 0.6 | 1.88 | 1.38 | 2.95 | IC50 (HCT-15 cells): 2.14 µM; CC50 (HSC-4 cells): 0.65 ± 0.02 µM; SI HSC-4 (HSC-4 cells): 16.6; IC50 (HCC-2998 cells): 1.86 µM; IC50 (SR cells): 0.62 µM; CC50 at 48 h [6]: 12.1 ± 1.79 µM; IC50 (K-562 cells): 1.2 µM; IC50 (HL-60 (TB) cells): 2.82 µM
2 | Cc1ccc(/C=C2\CN(C(=O)CCN3CCC(=NO)CC3)C/C(=C\c3ccc(C)cc3)C2=O)cc1 [Compound 3f, (3~{E},5~{E})-3,5-bis[(4-methylphenyl)methylene]-1-[3-(4-hydroximino-1-piperidyl)propanoyl]piperidin-4-one hydrochloride] | 8.42 ± 1.1 | 7.18 | 5.7 ± 0.65 | 0.65 | 0.75 ± 0.04 | 9.57 | 0.55 | 13.9 | 0.36 | 0.35 | 0.28 | 1.15 | 1.23 | 0.3 | 0.47 ± 0.04 | 15.3 | 7.85 ± 7.1 | 0.55 | 0.29 | 0.37 | IC50 (HCT-15 cells): 0.55 µM; CC50 (HSC-4 cells): 0.43 ± 0.12 µM; SI HSC-4 (HSC-4 cells): 16.7; IC50 (HCC-2998 cells): 1.58 µM; IC50 (SR cells): 0.31 µM; CC50 at 48 h [6]: 8 ± 0.2 µM; IC50 (K-562 cells): 0.32 µM; IC50 (HL-60 (TB) cells): 1.7 µM
